This experiment is described as follows: Potency to inhibit A1-adenosine receptor mediated cAMP accumulation in DDT1 MF-2 cells. The class given is functional, cell-based. The following applies: Mesocricetus auratus.

The compound `CCNC(=O)[C@H]1OC(n2cnc3c(NCC4CC5CC4C4OC54)ncnc32)[C@H](O)[C@@H]1O` (some centres undefined) registered an EC50 of 159 nM.

The compound `OC[C@H]1OC(n2cnc3c(NCC4CC5CC4C4OC54)ncnc32)[C@H](O)[C@@H]1O` (some centres undefined) had an EC50 of 537 nM.

The compound `CCNC(=O)[C@H]1OC(n2cnc3c(NC4CC5CC4C4OC54)[n+]([O-])cnc32)[C@H](O)[C@@H]1O` (some centres undefined) had an EC50 of 217 nM.

`OC[C@H]1OC(n2cnc3c(NCC4CC5C=CC4C5)ncnc32)[C@H](O)[C@@H]1O` (some centres undefined) came in with an EC50 of 188 nM.

For the compound `OC[C@H]1O[C@@H](n2cnc3c(NC4CCCC4)ncnc32)[C@H](O)[C@@H]1O` [N6-CYCLOPENTYLADENOSINE], the EC50 came to 2.8 nM.

The compound `OC[C@H]1OC(n2cnc3c(NCC4CCCCO4)ncnc32)[C@H](O)[C@@H]1O` (some centres undefined) yielded a concentration for a half-maximal effect (EC50) of 3090 nM.

`CCNC(=O)[C@H]1OC(n2cnc3c(NC4CC=CCC4)ncnc32)[C@H](O)[C@@H]1O` (some centres undefined) gave an EC50 of 1.1 nM. Against the preceding compound, the EC50 is about 2800-fold lower.

In the case of `CCNC(=O)[C@H]1OC(n2cnc3c(NCCN4CCOCC4)ncnc32)[C@H](O)[C@@H]1O` (some centres undefined), a half-maximal response (EC50) required 18 nM. Against the preceding compound, the EC50 is about 16-fold higher.

Regarding `CCNC(=O)[C@H]1OC(n2cnc3c(NC4CCC5OC5C4)ncnc32)[C@H](O)[C@@H]1O` (some centres undefined), the EC50 is 5.9 nM.

The compound `CCNC(=O)[C@H]1OC(n2cnc3c(NCC4CCCCO4)ncnc32)[C@H](O)[C@@H]1O` (some centres undefined) displayed a 50% effective concentration (EC50) of 641 nM.

For `OC[C@H]1OC(n2cnc3c(NC4CCC5OC5C4)ncnc32)[C@H](O)[C@@H]1O` (some centres undefined), the EC50 was determined as 37 nM.

In the case of `CCNC(=O)[C@H]1OC(n2cnc3c(NCC4CC5C=CC4C5)ncnc32)[C@H](O)[C@@H]1O` (some centres undefined), it took 35 nM to reach a half-maximal effect (EC50).

`CCNC(=O)[C@H]1OC(n2cnc3c(NCc4ccco4)ncnc32)[C@H](O)[C@@H]1O` (some centres undefined) gave an EC50 of 262 nM.

`OC[C@H]1OC(n2cnc3c(NC4CC=CCC4)ncnc32)[C@H](O)[C@@H]1O` (some centres undefined): the 50% effective concentration (EC50) turned out to be 7.2 nM.

For the origin of these results see ChEMBL document CHEMBL1131274, “N6-(5,6-epoxynorbornyl)adenosine analogs as A1 adenosine agonists” (Bioorg Med Chem Lett, 1998).
